Source: paper PMC4718634, “Murine GPRC6A Mediates Cellular Responses to L-Amino Acids, but Not Osteocalcin Variants” (PLoS ONE, 2016)
Entries after “also recorded” stand apart in the source; their conditions may differ. Bridge positions count the residues as written; N and C are the ends. Ends that are not written are not given here.

What was measured:
GPRC6A = tested on: GPRC6A; design: method as in PMID 15576628; details: chimera with goldfish 5.24 receptor and full length GPRC6A; ref [1]; cited from earlier work
mGPRC6A (mouse GPRC6A) [1] = molecular target: T1, mGPRC6A (mouse GPRC6A) (Mus musculus, UniProt Q8K4Z6); assay: Ca^2+i mobilisation, FlpIn-TREx-HEK293-mGPRC6A cells; assay type: cell-based
T1 sequence (Q8K4Z6 21-928): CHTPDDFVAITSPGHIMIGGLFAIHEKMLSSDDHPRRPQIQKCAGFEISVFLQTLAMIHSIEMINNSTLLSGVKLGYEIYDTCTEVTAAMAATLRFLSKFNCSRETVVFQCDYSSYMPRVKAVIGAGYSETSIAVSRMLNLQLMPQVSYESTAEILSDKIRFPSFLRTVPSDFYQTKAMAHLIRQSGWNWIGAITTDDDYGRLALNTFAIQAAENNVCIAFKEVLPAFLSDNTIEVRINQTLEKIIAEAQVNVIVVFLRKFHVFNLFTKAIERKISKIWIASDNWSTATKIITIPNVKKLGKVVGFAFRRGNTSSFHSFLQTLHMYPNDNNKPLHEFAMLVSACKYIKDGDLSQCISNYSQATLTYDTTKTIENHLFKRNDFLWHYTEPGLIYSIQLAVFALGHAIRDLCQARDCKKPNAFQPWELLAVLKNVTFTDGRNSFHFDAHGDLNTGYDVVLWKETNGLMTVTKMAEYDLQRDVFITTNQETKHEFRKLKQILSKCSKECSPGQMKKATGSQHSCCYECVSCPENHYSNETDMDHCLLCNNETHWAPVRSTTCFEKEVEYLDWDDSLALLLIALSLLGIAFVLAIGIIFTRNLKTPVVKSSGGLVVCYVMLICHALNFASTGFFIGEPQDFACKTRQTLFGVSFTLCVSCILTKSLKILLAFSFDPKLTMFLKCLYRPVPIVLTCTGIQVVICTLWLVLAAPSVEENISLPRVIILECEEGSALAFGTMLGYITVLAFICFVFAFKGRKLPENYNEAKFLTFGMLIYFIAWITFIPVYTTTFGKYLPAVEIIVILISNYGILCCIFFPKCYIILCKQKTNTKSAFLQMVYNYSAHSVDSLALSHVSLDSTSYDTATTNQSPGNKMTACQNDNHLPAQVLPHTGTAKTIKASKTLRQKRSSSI
Description: (§1) pcDNA 5/FRT/TO constructs were isogenically integrated into a FlpIn-TREx-HEK293 cell line (Life Technologies). FlpIn-TREx-HEK293-mGPRC6A and FlpIn-TREx-HEK293-hGPRC6A cells were then selected using 600 μg/ml hygromycin and 5 μg/ml blasticidin and grown in culture medium consisting of Dulbecco’s Modified Eagle Medium (DMEM), supplemented with 10% (v/v) foetal bovine serum (FBS) at 37°C in 5% CO2 and were sub-cultured in a 1:3 ratio every 3–4 days. Cells were cultured overnight in the presence of 1 μg/ml tetracycline to induce GPRC6A expression. […] 48 h after transfection, cells were selected using 3 μg/ml puromycin and grown as above.
FlpIn-TREx-HEK293-mGPRC6A cells were seeded into T75 flasks at 70% confluency. Cells were transfected with 15μg of plasmid DNA (Gαq or GαqG66D) with Lipofectamine LTX according to manufacturer's instructions, then incubated for 24h at 37°C in 5% CO2. Cells were plated into 96-well plates (10^5 cells/well) and equilibrated at 37°C in 5% CO2 for 4-6h to adhere, whereupon cells were serum starved overnight at 37°C in 5% CO2. For the assay, cells were washed twice in Ca^2+ assay buffer (150 mM NaCl, 2.6 mM KCl, 1.2 mM MgCl2, 10 mM dextrose, 10 mM HEPES, 2.2 mM CaCl2, 0.5% (w/v) BSA and 4 mM probenecid; pH 7.4). Buffer was then replaced with Ca^2+ assay buffer containing 1μM Fluo-4-AM and incubated for 1h at 37°C in 5% CO2. Cells were washed twice more and replaced with Ca^2+ assay buffer at 37°C. Serial dilutions of test agonists were added by injection in a Flexstation™ (Molecular Devices) and fluorescence was measured at 485nm excitation and 520nm emission wavelengths. Agonist responses were normalised to the peak of response to 100 μM ATP.
(§2) Data for all HEK293 assays represent the mean ± SEM of at least three independent experiments (except cell impedance, n = 2). For GLP-1 release, the data represent mean ± SEM of three to five independent experiments (except for OCN, wash; n = 2). For insulin release assays, data represent the mean ± SEM of three independent experiments (except for islet studies; n = 2). Insulin release data were normalised to the response to vehicle in either low or high [glucose]. Statistical analysis for GLP-1 release data were performed by one-way ANOVA, followed by Sidak’s multiple comparisons test (treating wash / no wash datasets separately). Statistical analyses for insulin release data were performed by two-way ANOVA (with [glucose] and drug treatment as group variables), followed by Sidak’s multiple comparisons test. Where only high [glucose] groups were evaluated, statistical analysis was by one-way ANOVA followed by Sidak’s multiple comparisons test.

GLUTag cells = assay: GLP-1 release from GLUTag cells; assay type: cell-based, murine; details: 0.01–10 ng/ml; with or without cell washing; 2 h; Fig 6A
Description: Intestinal L-cell model GLUTag cells were seeded in 24-well plates coated with Matrigel and incubated for 6 days in DMEM with 10% FBS, 100 U/ml penicillin, 100 μg/ml streptomycin at 37°C in 5% CO2 and grown for 4–5 days. Where indicated, cells were washed (1 or 2 x 1h) with Krebs-HEPES buffer (20 mM HEPES, 118 mM NaCl, 4.7 mM KCl, 1.2 mM MgSO4, 5 mM NaHCO3, 1.2 mM KH2PO4, 2.5 mM CaCl2, 5.5 mM glucose, 0.2% BSA (w/v), pH 7.2) containing vildagliptin (300 μM) prior to addition of test compounds in the same buffer. After 2 h incubation at 37°C in 5% CO2, the supernatant was recovered and centrifuged at 500 rpm for 5 min. Where used, NPS-2143 pre-treatment was for 30 min.
GLP-1 content in the cell supernatant was measured by ELISA (EGLP-35K, Millipore), according to manufacturer’s instructions after overnight incubation of 15 μl supernatant in 100 μl Krebs-HEPES buffer at 4°C. After 5 x washes, 200 μl of detection conjugate was added and incubated for 2 h at RT. After 3 x washes the reaction was developed with 200 μl of diluted substrate (1:200) for 20 min and terminated by addition of 50 μl stop solution. After 5 min, fluorescence was then measured using 355 nm excitation and 460 nm emission, transforming the obtained signal into pmol GLP-1/well/ml and corrected for GLUTag cell protein content as determined using the method of Bradford (1976).
as §2, with “Concentration-response data were analysed using a three or four parameter logistic function (Motulsky & Christopoulos, 2004) to generate estimates of agonist potency (LogEC50). Data” for “Data”

β-TC6 cells = assay: Insulin release from β-TC6 cells; assay type: cell-based, murine; details: OCN 0.03–100 ng/ml; both glucose concentrations; S3 Fig A
Description: (§3) MIN6 or βTC-6 cells were seeded in 24-well plates at 170,000 cells per well in DMEM (containing 4.5g/L glucose, 10 mM HEPES, 100 U/ml penicillin, 100 μg/ml streptomycin and 15% de-complemented FBS) and incubated at 37°C / 5% CO2 for 72 h. Cells were then washed with 500 μl PBS and incubated in 500 μl deprivation media (DMEM with zero glucose, 10 mM HEPES, 1 mM Na-pyruvate, 100 U/ml penicillin, 100 μg/ml streptomycin, 15% de-complemented FBS) for 2 h at 37°C. Media was aspirated and after washing with 500 μl PBS, cells were treated with 250 μl of Krebs buffer (250 mM NaCl, 5.9 mM KCl, 1.2 mM MgCl2, 1.3 mM CaCl2, 25 mM HEPES, 0.1% BSA (w/v), and 2 mM or 16.7 mM glucose; pH 7.4) in the presence or absence of test compound. After incubation for 2 h at 37°C, the assay was terminated by placing the plates on ice and supernatants were transferred to a 96-well plate in preparation for insulin ELISA (Alpco) following manufacturer’s instructions. The cell monolayer was washed twice with 500 μl of PBS and then lysed using 250 μl of 1 N NaOH prior to protein measurement by the method of Bradford (1976).
as §2, with “Concentration-response data were analysed using a three or four parameter logistic function (Motulsky & Christopoulos, 2004) to generate estimates of agonist potency (LogEC50). Data” for “Data”

mGPRC6A (mouse GPRC6A) [2] = molecular target: T1, mGPRC6A (mouse GPRC6A); assay: Cyclic AMP accumulation, FlpIn-TREx-HEK293-mGPRC6A cells; assay type: cell-based; details: 30 min, 0.5 mM IBMX; Alphascreen; Fig 3A
Description: as §1
HEK293-mGPRC6A cells were seeded at a density of 10^5 cells per well into PDL-coated 96-well plates and incubated overnight in DMEM, supplemented with 10% FBS (v/v) at 37°C in 5% CO2. Cells were then incubated in 90 μl of stimulation buffer (HBSS containing 5 mM HEPES, 0.1% BSA (w/v), 0.5 mM IBMX; pH 7.4) for 30 min at 37°C. Test compounds (10 μl at 10 x final) were added and cells were incubated for an additional 30 min at 37°C. The medium was removed and cells were incubated in 50 μl of ice-cold 100% ethanol. Once evaporated, 100 μl of lysis buffer (5 mM HEPES, 0.1% BSA (w/v), 0.3% Tween-20; pH 7.4) was added to the cells and samples were stored at -20°C until further analysis. Samples were analysed using the Alphascreen® cAMP assay kit (Perkin Elmer) following manufacturer instructions. Briefly, 10 μl of lysates were added to a 384-well Optiplate. After addition of 5 μl of acceptor bead mix, plate was incubated at RT for 30 min followed by addition of 15 μl of donor bead mix. After overnight (16 h) incubation at RT, plates were read using the Envision plate reader.

MIN6 cells = assay: Insulin release from MIN6 cells; assay type: cell-based, murine; details: mouse OCN 0.03–30 ng/mL, 0.03–100 ng/mL (Fig 6B legend); low and high glucose
Description: as §3
as §2, with “Concentration-response data were analysed using a three or four parameter logistic function (Motulsky & Christopoulos, 2004) to generate estimates of agonist potency (LogEC50). Data” for “Data”

INS-1(832) cells = assay: Label-free cell impedance, INS-1(832) cells; assay type: cell-based, rat; details: Gprc6a-negative; EBSS, 2.8 mM glucose; Fig 7; two-way ANOVA, *P < 0.05, **P < 0.01 vs Vehicle; listed as synthetic mouse OCN
Description: For INS-1 cells, 100 μl of medium (RPMI 1640 no glucose, 10% FBS, 55 μM β-mercaptoethanol, 1 mM sodium pyruvate, 10 mM HEPES, 100 U/ml penicillin, 100 μg/ml streptomycin, 11.1 mM glucose) was added per well to an E-plate 96 and a background reading taken. Cells were seeded at 2 x 10^4 / well and the plates incubated in the instrument for 48 h. On the day of the experiment, media was changed to EBSS buffer (180 μl; 2.8 mM glucose, 1.8 mM CaCl2, 5.3 mM KCl, 0.8 mM MgSO4, 117 mM NaCl, 26 mM NaHCO3, 1 mM NaH2PO4). After 2 h incubation, cells were stimulated with 20 μl test compound (10 x final) prepared in the same buffer. Data capture and analysis were as for HEK293 cells.

## NCCCC[C@H](N)C(=O)O [L-lysine]
GPRC6A
  agonist response of GPRC6A: mediates responses to L-amino acids
mGPRC6A (mouse GPRC6A) [1]
  EC50: 15.8 µM
mGPRC6A (mouse GPRC6A) [1]; calcium mobilisation and inositol phosphate accumulation, Discussion
  potency at murine GPRC6A (calcium and inositol phosphate, words): most potent agonists
mGPRC6A (mouse GPRC6A) [1]; co-expressing GαqG66D, Fig 1D
  rank order of potency, Ca^2+ mobilisation: L-ornithine > L-arginine = L-lysine

## YLYQWLGAPVPYPDPLEPRREVCELNPDCDELADHIGFQEAYRRFYGPV-NH2/-COOH (disulfide) [human synthetic OCN (acid form), synthetic de-carboxylated human osteocalcin, Federation Bioscience]
GLUTag cells
  GLP-1 release, OCN: did not increase GLP-1 release
β-TC6 cells
  insulin secretion, OCN: no significant effect

## C=C[C@@]1(C)CC(=O)[C@]2(O)[C@@]3(C)[C@@H](O)CCC(C)(C)[C@@H]3[C@H](O)[C@H](OC(C)=O)[C@@]2(C)O1 [forskolin]
mGPRC6A (mouse GPRC6A) [2]
  stimulation of cAMP accumulation: robust increases in cAMP levels

## mouse synthetic OCN: synthetic de-carboxylated mouse osteocalcin, Federation Bioscience (YLGASVPSPDPLEPTREQCELNPACDELSDQYGLKTAYKRIYGITI-OH; disulfide 19-25 (inferred); not fully specified)
MIN6 cells
  insulin secretion, OCN: did not affect insulin secretion
INS-1(832) cells
  change in cell impedance (cell index): significant changes in cell impedance; also recorded: Concentration-dependent increases in cell index
